Results: US8815948B2, “High volume and alternative methods of delivering homeopathic remedies” (Dovetail Technologies, Inc., priority 2004, dated 2014)

System: cat with Gran Mal seizures
Assay: Taurox SB added to food of a cat with Gran Mal seizures
Format: in vivo
Conditions: cat Misty, before Taurox SB
Excerpt: The homeopathic remedy may be included in food. For example, Misty, a cat who had been accepted by a rescue shelter, suffered with severe, potentially life-threatening Gran Mal seizures about three times a day and almost every other day. […] Overall, she averaged a few a month while being treated.
The homeopathic remedy may also be included in food. […] This invention applies to all foods from treats treated with the homeopathic on site, to the bulk supplied food while making it, to massive watering systems used to water livestock or irrigate fields. It applies to all forms of life including human, animal and plant.

Substance: Bromide salts
- benefit on seizures of earlier medication: without significant benefits
